In PubChem BioAssay AID1745844 (Carcinogenic Potency Database (CPDB), 2022):
The source made the active and inactive calls. How the calls were made is not given here.

System: rodent lifetime carcinogenesis bioassay, tumor incidence TD50
Test: carcinogenic potency in animals, long-term in vivo studies, CPDB compilation (AID 1745844)
[1] = mouse, strain B6AKF1, females, oral dosing, site: lung, lesion: adenoma, dosed 76 weeks, study length 76 weeks

Structure (SMILES): O=C(C1CCCCC1)N1CC(=O)N2CCc3ccccc3C2C1 (centres undefined)
- TD50 (hamster, strain Syrian Golden, females, by gavage, site: any site (literature study), lesion: several types, types named in the paper, dosed 80 weeks, study length 80 weeks): 250 mg/kg/day (inactive)
- carcinogen call (hamster, strain Syrian Golden, males, by gavage, site: any site (literature study), lesion: several types, types named in the paper, dosed 80 weeks, study length 80 weeks): negative (inactive)
- carcinogen call (rat, strain Sprague-Dawley, females, by gavage, site: any site (literature study), lesion: several types, types named in the paper, dosed 104 weeks, study length 130 weeks): negative (inactive)
- carcinogen call (rat, strain Sprague-Dawley, males, by gavage, site: any site (literature study), lesion: several types, types named in the paper, dosed 104 weeks, study length 130 weeks): negative (inactive)

Structure (SMILES): Oc1c(Cl)cc(Cl)cc1Sc1cc(Cl)cc(Cl)c1O
- carcinogen call (mouse, strain B6AKF1, females, oral dosing, site: liver, lesion: hepatoma, dosed 76 weeks, study length 76 weeks): negative (inactive)
- TD50 [1]: 100 mg/kg/day
- carcinogen call [1]: negative (inactive)
- carcinogen call (mouse, strain B6AKF1, males, oral dosing, site: any site (literature study), lesion: several types, types named in the paper, dosed 76 weeks, study length 76 weeks): negative (inactive)
- carcinogen call (mouse, strain B6AKF1, males, oral dosing, site: liver, lesion: hepatoma, dosed 76 weeks, study length 76 weeks): negative (inactive)
- carcinogen call (mouse, strain B6AKF1, males, oral dosing, site: lung, lesion: adenoma, dosed 76 weeks, study length 76 weeks): negative (inactive)
- carcinogen call (mouse, strain B6C3F1, females, oral dosing, site: any site (literature study), lesion: one or several types, types not named, dosed 76 weeks, study length 76 weeks): negative (inactive)
- TD50 (mouse, strain B6C3F1, females, oral dosing, site: any site (literature study), lesion: several types, types named in the paper, dosed 76 weeks, study length 76 weeks): 43 mg/kg/day
- carcinogen call (mouse, strain B6C3F1, females, oral dosing, site: liver, lesion: hepatoma, dosed 76 weeks, study length 76 weeks): negative (inactive)
- carcinogen call (mouse, strain B6C3F1, females, oral dosing, site: lung, lesion: several types, types named in the paper, dosed 76 weeks, study length 76 weeks): negative (inactive)
- TD50 (mouse, strain B6C3F1, males, oral dosing, site: liver, lesion: angioma, dosed 76 weeks, study length 76 weeks): 88.2 mg/kg/day
- TD50 (mouse, strain B6C3F1, males, oral dosing, site: liver, lesion: several types, types named in the paper, dosed 76 weeks, study length 76 weeks): 2.28 mg/kg/day (inactive)
- TD50 (mouse, strain B6C3F1, males, oral dosing, site: lung, lesion: adenoma, dosed 76 weeks, study length 76 weeks): 88.2 mg/kg/day
- carcinogen call (mouse, strain B6C3F1, males, oral dosing, site: lung, lesion: several types, types named in the paper, dosed 76 weeks, study length 76 weeks): negative (inactive)

Structure (SMILES): O=NN1CCCCCCC1
- TD50 (rat, strain Fischer 344, males, in drinking water, site: esophagus, lesion: basal-cell carcinoma, dosed 50 weeks, study length 125 weeks): 0.159 mg/kg/day
- TD50 (rat, strain Fischer 344, males, in drinking water, site: esophagus, lesion: several types, types named in the paper, dosed 25 weeks, study length 115 weeks): 0.118 mg/kg/day
- TD50 (rat, strain Fischer 344, males, in drinking water, site: esophagus, lesion: several types, types named in the paper, dosed 100 weeks, study length 115 weeks): 0.0735 mg/kg/day
- carcinogen call (rat, strain Fischer 344, males, in drinking water, site: liver, lesion: hepatocellular carcinoma, dosed 50 weeks, study length 125 weeks): positive
- TD50 (rat, strain Fischer 344, males, in drinking water, site: liver, lesion: several types, types named in the paper, dosed 100 weeks, study length 115 weeks): 0.198 mg/kg/day
- TD50 (rat, strain Fischer 344, males, in drinking water, site: tongue, lesion: basal-cell carcinoma, dosed 50 weeks, study length 125 weeks): 0.171 mg/kg/day
- TD50 (rat, strain Fischer 344, males, in drinking water, site: tongue, lesion: basal-cell carcinoma, dosed 100 weeks, study length 115 weeks): 0.105 mg/kg/day
- TD50 (rat, strain Fischer 344, males, in drinking water, site: upper gastrointestinal tract, lesion: carcinoma, dosed 25 weeks, study length 115 weeks): 0.0363 mg/kg/day
- TD50 (rat, strain Fischer 344, males, in drinking water, site: upper gastrointestinal tract, lesion: several types, types named in the paper, dosed 25 weeks, study length 115 weeks): 0.0512 mg/kg/day
- TD50 (rat, strain Fischer 344, males, in drinking water, site: upper gastrointestinal tract, lesion: several types, types named in the paper, dosed 50 weeks, study length 125 weeks): 0.0571 mg/kg/day
- TD50 (rat, strain Fischer 344, males, in drinking water, site: upper gastrointestinal tract, lesion: several types, types named in the paper, dosed 100 weeks, study length 115 weeks): 0.0292 mg/kg/day

Structure (SMILES): O=C1CCCCCN1
- carcinogen call (mouse, strain B6C3F1, females, in feed, site: any site (literature study), lesion: several types, types named in the paper, dosed 103 weeks, study length 105 weeks): negative (inactive)
- carcinogen call (mouse, strain B6C3F1, males, in feed, site: any site (literature study), lesion: several types, types named in the paper, dosed 103 weeks, study length 105 weeks): negative (inactive)
- TD50 (mouse, strain B6C3F1, males, in feed, site: liver, lesion: hepatocellular adenoma + hepatocellular carcinoma + neoplastic nodule, dosed 103 weeks, study length 105 weeks): 34300 mg/kg/day
- carcinogen call (rat, strain Fischer 344, females, in feed, site: any site (literature study), lesion: several types, types named in the paper, dosed 103 weeks, study length 105 weeks): negative (inactive)
- TD50 (rat, strain Fischer 344, males, in feed, site: liver, lesion: hepatocellular adenoma + hepatocellular carcinoma + neoplastic nodule, dosed 103 weeks, study length 105 weeks): 5690 mg/kg/day
- TD50 (rat, strain Fischer 344, males, in feed, site: pituitary gland, lesion: carcinoma, NOS, dosed 103 weeks, study length 105 weeks): 3560 mg/kg/day (inactive)

Structure (SMILES): CC(=O)CN(N=O)C(N)=O
- TD50 (hamster, strain Syrian Golden, females, by gavage, site: spleen, lesion: all vascular tumors, dosed 40 weeks, study length 55 weeks): 0.121 mg/kg/day
- TD50 (hamster, strain Syrian Golden, males, by gavage, site: spleen, lesion: hemangiosarcoma, dosed 40 weeks, study length 75 weeks): 0.14 mg/kg/day
- TD50 (rat, strain Fischer 344, females, by gavage, site: kidney, lesion: mesenchymal neoplasm, dosed 30 weeks, study length 104 weeks): 0.32 mg/kg/day
- TD50 (rat, strain Fischer 344, females, by gavage, site: liver, lesion: one or several types, types not named, dosed 30 weeks, study length 104 weeks): 4.04 mg/kg/day
- TD50 (rat, strain Fischer 344, males, by gavage, site: kidney, lesion: mesenchymal neoplasm, dosed 30 weeks, study length 104 weeks): 0.456 mg/kg/day

Structure (SMILES): CCCNN
- TD50 (mouse, strain Swiss albino, females, in drinking water, site: lung, lesion: adenocarcinoma, dosed 99 weeks, study length 99 weeks): 109 mg/kg/day
- TD50 (mouse, strain Swiss albino, females, in drinking water, site: lung, lesion: adenoma, dosed 99 weeks, study length 99 weeks): 42.7 mg/kg/day
- TD50 (mouse, strain Swiss albino, females, in drinking water, site: lung, lesion: several types, types named in the paper, dosed 99 weeks, study length 99 weeks): 41.4 mg/kg/day
- TD50 (mouse, strain Swiss albino, males, in drinking water, site: liver, lesion: liver-cell carcinoma, dosed 93 weeks, study length 93 weeks): 102 mg/kg/day (inactive)
- TD50 (mouse, strain Swiss albino, males, in drinking water, site: liver, lesion: several types, types named in the paper, dosed 93 weeks, study length 93 weeks): 80.8 mg/kg/day
- TD50 (mouse, strain Swiss albino, males, in drinking water, site: lung, lesion: adenoma, dosed 93 weeks, study length 93 weeks): 41.3 mg/kg/day
- TD50 (mouse, strain Swiss albino, males, in drinking water, site: lung, lesion: several types, types named in the paper, dosed 93 weeks, study length 93 weeks): 50.5 mg/kg/day

Structure (SMILES): CCN(N)C=O
- TD50 (mouse, strain Swiss albino, females, in drinking water, site: blood vessels, lesion: several types, types named in the paper, dosed 61 weeks, study length 61 weeks): 2.49 mg/kg/day
- TD50 (mouse, strain Swiss albino, females, in drinking water, site: lung, lesion: several types, types named in the paper, dosed 61 weeks, study length 61 weeks): 2.52 mg/kg/day
- TD50 (mouse, strain Swiss albino, males, in drinking water, site: blood vessels, lesion: several types, types named in the paper, dosed 60 weeks, study length 60 weeks): 3.55 mg/kg/day
- TD50 (mouse, strain Swiss albino, males, in drinking water, site: gall bladder, lesion: several types, types named in the paper, dosed 60 weeks, study length 60 weeks): 47.4 mg/kg/day
- TD50 (mouse, strain Swiss albino, males, in drinking water, site: liver, lesion: several types, types named in the paper, dosed 60 weeks, study length 60 weeks): 17.7 mg/kg/day
- TD50 (mouse, strain Swiss albino, males, in drinking water, site: lung, lesion: several types, types named in the paper, dosed 60 weeks, study length 60 weeks): 3.19 mg/kg/day
- TD50 (mouse, strain Swiss albino, males, in drinking water, site: preputial gland, lesion: several types, types named in the paper, dosed 60 weeks, study length 60 weeks): 50.8 mg/kg/day
